“And” between values parts separate entries of the source, which are not always exact repeats. Equal values may be shown once.
Legend:
[1] = test system: PC 12 rat pheochromocytoma cells; assay: Cell differentiation assay: neurite-like outgrowth; format: cell-based
Description: In each case, the degree of neurite-like outgrowth was taken to be 100% in the control wells of untreated PC 12 cells. The degree of differentiation in cell wells in the presence of NGF and/or drug is expressed as a percentage relative to 100% for the control.
PC 12 cells were plated in 24 well plates at 37° C. in 5% CO2 and incubated in DMEM supplemented with 5% fetal bovine serum and the treatments described below. Neurite-like outgrowth in PC 12 cells was detected after a 48 hour period using a Nikon light microscope. For each data point 5 fields of 250-300 cells/well were analyzed. For the quantitation of neurite-like outgrowth the PC 12 cells were considered to have outgrowth if their processes were longer than the length of the diameter of the cell.
A range of concentrations of either NGF (0.1 to 50 ng/mL), FK506 (1 to 500 nM) or L,685-818 (1 to 500 nM) alone or combinations of 0.5 or 5 ng/mL of NGF with either FK506 (5 to 500 nM) or L-685,818 (50 nM to 10 μM), were incubated with the PC 12 cells for a 48 hour incubation period. The wells with untreated cells were used as controls.
The unfiltered solution of the micelle incorporated drug was added to the cell wells at different concentrations: a 10 μL aliquot of a FK506-micelle solution was added to each 0.5 mL cell well. The 10 μL aliquot was produced by diluting the 1.1×10^−5 moles/L FK506-PCL20-b-PEO44 micelle (1% w/w) stock solution. The final concentration of FK506 in the cell well was made to range from […]. In the same manner, a 10 uL aliquot of the L-685,818 micelle solution was added to each 0.5 mL cell well, such that final concentration in the well was made to range from 10 nM to 1 μM. In each case, 5 ng/mL NGF was also added to each cell well. Several controls were also used where the cells were treated with 5 ng/mL of NGF alone, 1% (w/w) PCL20-b-PEO44 micelles alone, 1% (w/w) PCL20-b-PEO44 micelles containing 1 nM FK 506 without NGF or 1% (w/w) PCL20-b-PEO44 micelles containing 10 nM L-685,818.

PC 12 cells = assay: Cell uptake of pyrene incorporated micelles; format: cell-based, rat; details: 390 nm, zero time = 1, PCL14-b-PEO44 micelles
Description: The in vitro biocompatibility of the PCL-b-PEO micelles (14-b-44, 20-b-44) was tested by incubating the micelles with a wide range of cell lines for both 24-hour and 48-hour periods. The Trypan blue and Alamar blue survival assays were then used to quantify the survival rates in the presence of the PCL-b-PEO micelles. The capability of the PCL-b-PEO micelle system to deliver a hydrophobic compound was first tested in vitro using pyrene as a model compound. The pyrene incorporated PCL-b-PEO micelles were incubated with PC 12 cells over a 24-hour period. At 0, 4, 8 and 24 hours, samples of the supernatant were studied by fluorescence in order to determine the quantity of pyrene remaining in the supernatant at each time point. Likewise, at each time point, cells were isolated and their fluorescence was examined under the fluorescence microscope in order to determine if the decrease in the fluorescence within the supernatant was accompanied by an increase in fluorescence within the cells.
Pyrene incorporated micelles were prepared such that a total of 2×10^−7 moles/L of pyrene had been added to the 1% (w/w) micelle (PCL14-b-PEO44) solution, An aliquot of the micelle solution was incubated with PC 12 cells cultured in DMEM at 37° C., 5% CO2. At time 0, and 4, 8 and 24 hours, the fluorescence intensity (Perkin Elmer LS 50) of the supernatant was measured at 390 nm to determine the amount of pyrene remaining in the supernatant. Controls consisting of medium or medium and micelles alone were also measured. Following the removal of the aliquot of supernatant at each time point, the remaining supernatant was removed and the cells were washed three times with 100 uL of phosphate buffer saline. The cells were then gently scraped and fixed with aquamount on a slide and analyzed using a fluorescence microscope (Olympus BH-2).

[2] = Partition coefficient for pyrene between PCL-b-PEO micelles and water (fluorescence I3/I1 method); format: physicochemical; details: extrapolation to 100% water content; PCL-b-PEO (20-b-44) micelles
Description: The degree of non-covalent incorporation of physical entrapment of a hydrophobic drug into a micelle is determined by the partition coefficient of the drug between the micellar core and the surrounding aqueous medium. The affinity of the PCL-b-PEO micelles for lipophilic compounds was assayed by the determination of the Kv for the hydrophobic model compound, pyrene, between the PCL-b-PEO micelles and water. This method has been previously used to determine the Kv of pyrene between polystyrene-b-polyacrylic acid micelles and water. This fluorescence method is based on pyrene's sensitivity to the hydrophobicity of its microenvironment. […]
The fluorescence method used to determine the partition coefficient for pyrene between a mixed water/DMF solvent mixture (60-90% water content) and block copolymer micelles (concentration PCL20-b-PEO44 ranges from 1×10^−6 to 1×10^−2 g/g), at 25° C., has been described in detail elsewhere (Zhao, J. et al. (1997) Macromolecules, 30:7143-7150). […] Briefly, the intensity ratio of vibrational band three to vibrational band one (I3/I1) in the fluorescence emission spectrum of pyrene reflects the polarity of the surrounding environment of the probe molecules. […]
Steady-state fluorescent spectra were measured using a SPEX Fluorolog 2 spectrometer in the right-angle geometry (90° collecting optics). […] For fluorescence emission spectra, λεξ was 339 nm. […]

[3] = polystyrene-b-polyacrylic acid micelles; Zhao et al. 1997; cited from earlier work
[4] = drug alone 1 to 500 nM, 48 h, untreated control = 100%

Compound: CC[C@@H]1/C=C(\C)[C@@H](O)[C@H](C)C[C@H](OC)[C@H]2O[C@@](O)(C(=O)C(=O)N3CCCC[C@H]3C(=O)O[C@H](/C(C)=C/[C@@H]3CC[C@@H](O)[C@H](OC)C3)[C@H](C)[C@@H](O)CC1=O)[C@H](C)C[C@@H]2OC [L-685,818]
- degree of neurite-like outgrowth [1, 4]: ~100%
- effect of drug concentration on degree of differentiation ([1]; drug alone, no NGF, 48 h): no effect on the degree of differentiation
- potentiation of the effect of NGF on neurite-like outgrowth ([1]; with 5 ng/mL NGF, PC 12 cell cultures): potentiate the effect of NGF on the outgrowth of PC 12 cells

Compound: c1cc2ccc3cccc4ccc(c1)c2c34 [pyrene]
- relative fluorescence intensity of pyrene in supernatant (PC 12 cells; after 4 hours): 0.70 (±0.05)
- relative fluorescence intensity of pyrene in supernatant (PC 12 cells; after 8 hours): 0.60 (±0.05)
- relative fluorescence intensity of pyrene in supernatant (PC 12 cells; after 24 hours): 0.55 (±0.05)
- partition coefficient (Kv) for pyrene between PCL-b-PEO micelles and water [2]: ~10^2
- partition coefficient for pyrene between PS-b-PAA micelles and water [3]: ~10^5

Compound: NGF: nerve growth factor
- degree of neurite-like outgrowth ([1]; 5 ng/mL NGF alone, 48 h, untreated control = 100%): 160±5% and 180±6%
- degree of neurite-like outgrowth ([1]; NGF alone 0.1 to 50 ng/mL, 48 h, untreated control = 100%): 110-260%

Compound: C=CC[C@@H]1/C=C(\C)C[C@H](C)C[C@H](OC)[C@H]2O[C@@](O)(C(=O)C(=O)N3CCCC[C@H]3C(=O)O[C@H](/C(C)=C/[C@@H]3CC[C@@H](O)[C@H](OC)C3)[C@H](C)[C@@H](O)CC1=O)[C@H](C)C[C@@H]2OC [FK506]
- degree of neurite-like outgrowth [1, 4]: ~100%
- degree of neurite-like outgrowth ([1]; free FK506 1-100 nM with 5 ng/mL NGF, 48 h): 220-380%
- dose adequate to potentiate neurite-like outgrowth ([1]; in vitro, PC12 cell cultures): 1 nM

— patent US6469132B1, “Diblock copolymer and use thereof in a micellar drug delivery system” (McGill University, priority 1999, dated 2002)
